These results are taken from US20130251782A1, “TOPICAL APPLICATION OF INGENOL MEBUTATE WITH OCCLUSION” (LEO LABORATORIES LIMITED, priority 2012, published 2013).

Read-outs that look alike come from different tables or passages of the source.

Data set [1] can be described thus: In vitro skin permeation and penetration of PEP005, flow through diffusion cells. The class given is in vitro ADME, pig. From the text: The in vitro skin permeation and penetration of PEP005 was investigated with various types of occlusion dressings, using flow through diffusion cells. Dressings were applied immediately (without formulation drying), as well as after the formulation had dried. Additionally, PEP005 might also be absorbed into the occlusion dressing, which also was investigated.
Methods: The in vitro permeation and penetration of PEP005 into pig ear skin was studied using PermeGear® flow through diffusion cells (n=6 per formulation). The skin diffusion experiment was allowed to proceed for 21 hours into a recipient phase consisting of 0.04 M isotonic phosphate buffer pH 7.4. Samples from the different skin layers and recipient phase were collected in order to determine flux and skin distribution of PEP005. The samples were analysed by LC-MS/MS.
The test formulation used is an aqueous based gel formulation containing; PEP005 0.5 mg/g, Benzyl Alcohol 9 mg/g, Isopropanol 300 mg/g, Citric acid 5.4 mg/g, Sodium Citrate dihydrate 1.4 mg/g, Hydroxyethyl Cellulose 15 mg/g and water up to 1 g, with a formulation pH of 3.2.
Full thickness skin from pig ears was used in the study. The ears were kept frozen at −18° C. until use. Before the experiment, the ears were placed in a refrigerator (2-8° C.) for slow defrosting. The hairs were removed using a veterinary hair trimmer. The skin was cleaned for subdermal fat using a scalpel, and two pieces of skin were cut from each ear. The pieces of skin were refrozen and kept for no longer than 4 weeks. […]
The used PermeGear® automated system incorporate nine flow through diffusion cells (1-9) made of clear glass, in which the donor and receptor chambers were separated by a diffusion membrane and held together by a pinch clamp. […] The specific volume was measured and registered for each cell. […]
Prior to application of the formulation, the experiment was started by starting the pump. […] The formulation was applied using a glass spatula and the residual amount of formulation was determined, thus giving the actual amount of formulation applied to the skin. […]

Data set [2] deals with sBCC lesion on the trunk or extremities. The class given is in vivo. From the text: The primary objective of the clinical trial was to evaluate the safety of PEP005 Gel, 0.05% when administered for up to 3 consecutive days application (Day 1, 2 and 3), to a sBCC lesion on the trunk and extremities.
Another objective of the clinical trial was to evaluate the efficacy of PEP005 Gel, 0.05% when administered for up to 3 consecutive days application (Day 1, 2 and 3), to a sBCC lesion on the trunk and extremities.
This was a phase 2, multi-centre, parallel group, open-label trial to evaluate the safety and efficacy of PEP005 (ingenol mebutate) Gel, 0.05%, when administered for up to 3 consecutive days (Day 1, 2 and 3) to a sBCC lesion on the trunk or extremities.
The trial population was planned to include 75 subjects aged at least 18 years with a primary diagnosed and histologically confirmed sBCC located on the trunk or extremities which was suitable for excision.
Eligible subjects were randomised to receive physician-applied trial medication in one of the following 3 treatment groups:
Group 1) PEP005 Gel, 0.05%, up to 3 consecutive days treatment, occluded with an aluminium disk;
Group 2) PEP005 Gel, 0.05%, up to 3 consecutive days treatment, occluded with an Opsite™ disk;
Group 3) PEP005 Gel, 0.05%, up to 3 consecutive days treatment, not occluded.
Eligible subjects received PEP005 Gel on Days 1, 2 and 3. […] If tolerability to trial medication was maintained, the subjects received all 3 doses of PEP005 Gel, 0.05%, regardless of whether the sBCC lesion being treated was resolved or not.
Subsequent follow-up visits for safety assessments were made on Days 2, 3 (as applicable), 4 (as applicable), 8, 15, 29, 57, 85 and 120. Histological and clinical efficacy assessments were only conducted at Day 120. If trial medication was not administered on Day 2 a follow-up visit on Day 3 or 4 was not necessary, unless clinically indicated. If trial medication was not administered on Day 3 a follow-up visit on Day 4 was not necessary, unless clinically indicated.
The volume of PEP005 Gel applied to the selected treatment area was 30 μl for lesions with the longest axes of between 4-10 mm and 50 μl for lesions with the longest axes of between 11-15 mm.
The actual treatment analysis set included the same subjects as in the full analysis set, i.e. 75 randomised subjects. However, 2 subjects who received the wrong treatment were assigned to their actual treatment group, i.e. PEP005 Aluminium Disk.
Thus, in the actual treatment analysis set 27 subjects were included in PEP005 Aluminium Disk group and 24 subjects both in PEP005 Opsite™ Disk group and PEP005 No Occlusion group.

The conditions of data set [3]: cited from earlier work.

On to `C/C=C(/C)C(=O)O[C@H]1C(C)=C[C@]23C(=O)[C@@H](C=C(CO)[C@@H](O)[C@]12O)[C@H]1[C@@H](C[C@H]3C)C1(C)C` [PEP005, 2-methyl-2(Z)-butenoic acid (1aR,2S,5R,5aS,6S,8aS,9R,10aR)-5,5a-dihydroxy-4-(hydroxymethyl)-1,1,7,9-tetramethyl-11-oxo-1a,2,5,5a,6,9,10,10a-octahydro-1H-2,8a-methanocyclopenta[a]cyclopropa[e]cyclodecen-6-yl ester], for which the “Increase in penetrated amount of PEP005 after occlusion compared to the non-occluded treatment” value in data set [1] (Study PMPN1028, all dressings) is listed as 2-6 fold. Further, the “Increase in permeation of PEP005 compared to the non-occluded treatment” value in data set [1] (aluminium foil, parafilm, Coloplast vinyl film and Compeed, Study PMPN1028) is listed as 9-10 fold. In addition, the “Increase in skin permeation compared to the non-occluded treatment” value in data set [1] (semi-occlusive dressing Flexifix, Study PMPN1028) turned out to be 3 fold. Moreover, in data set [2] (Aluminium Disk group (n = 27)), the “Number of subjects who received 1 dose (dosing continued only if tolerated)” value (shortened to “Number of subjects who received 1 dose”) is on record as 22, the “Number of subjects who received 2 doses (dosing continued only if tolerated)” value (from here on “Number of subjects who received 2 doses”) came out at 2, the “Number of subjects who received 3 doses (dosing continued only if tolerated)” value (from here on “Number of subjects who received 3 doses”) came to 13 and the “Subjects who received 1 dose (dosing continued only if tolerated)” value was 81.5%. In data set [2] (Aluminium Disk group (n = 27)), the “Subjects who received 2 doses (dosing continued only if tolerated)” value worked out at 7.4% and the “Subjects who received 3 doses (dosing continued only if tolerated)” value was determined as 11.1%. In addition, in data set [2] (No Occlusion group (n = 24)), the “Number of subjects who received 1 dose” value is 0, the “Number of subjects who received 2 doses” value came to 1, the “Number of subjects who received 3 doses” value is 23 and the “Subjects who received 1 dose (dosing continued only if tolerated)” value stood at 0.0%. Besides, in data set [2] (No Occlusion group (n = 24)), the “Subjects who received 2 doses (dosing continued only if tolerated)” value came out at 4.2% and the “Subjects who received 3 doses (dosing continued only if tolerated)” value turned out to be 95.8%. In data set [2] (OpSite Disk group (n = 24)), the “Number of subjects who received 1 dose” value stood at 0, the “Number of subjects who received 2 doses” value was 5, the “Number of subjects who received 3 doses” value amounted to 19 and the “Subjects who received 1 dose (dosing continued only if tolerated)” value was determined as 0.0%. In data set [2] (OpSite Disk group (n = 24)), the “Subjects who received 2 doses (dosing continued only if tolerated)” value was determined as 20.8% and the “Subjects who received 3 doses (dosing continued only if tolerated)” value is 79.2%. In data set [3] (alcohols such as benzyl alcohol and isopropyl alcohol), the Stability in alcohols entry is “good stability”. For the same molecule, in data set [3] (low pH), the “Stability at low pH” value is listed as “good stability”.
